Publication PMC9949698, “Visible-Light-Controlled Histone Deacetylase Inhibitors for Targeted Cancer Therapy” (Journal of Medicinal Chemistry, 2023)
Like-named read-outs stand apart in the source and are kept apart here.

Experiments:
human recombinant HDAC1 [1] = target: T1, human recombinant HDAC1 (Homo sapiens, UniProt Q13547); experiment: Fluorogenic assay with human recombinant HDAC1, dark or illumination; type: biochemical; details: for IC50: 1 h at room temperature (Table 2)
T1 construct: purchased BPS Bioscience
Procedure: To study the inhibition of HDAC enzymes by the compounds, we used a fluorogenic assay with human recombinant HDAC1.[32] The enzyme was incubated with an acetylated substrate and each inhibitor for 1 h at room temperature, under either dark or light conditions. We opted for illumination throughout the incubation period to maintain the maximum proportion of cis under light conditions. […] Then, the deacetylated substrate generated a fluorescent coumarin after incubation of the mixture with trypsin at 37 °C for 20 min.
Stock solutions of the compounds were diluted to 1 mM in DMSO and then heated to 60 or 80 °C to obtain solutions with the maximum amount of the trans isomer (dark). […] The 1 mM solutions were then serially diluted with HDAC buffer to 10 times the desired concentration, maintaining DMSO at 10%.
In control wells without the compound, inhibitor, or enzyme, HDAC buffer was added instead. […] Then, 50 μL of the stop solution was added and the plates were incubated at 37 °C for 20 min in the dark. Fluorescence was measured at a λem of 460 nm and a λex of 380 nm. Enzyme activity is expressed as a percentage with respect to the nontreated cells, after subtracting the blank (well with no enzyme and no compound).

HeLa cells = experiment: HeLa cell viability, MTS assay, dark or preillumination; type: cell-based; details: for IC50: Homo sapiens, HeLa
Procedure: We then proceeded to evaluate the effect of the compounds in a viability assay against HeLa cells.
HeLa, MCF7, and HT29 cells were maintained in adherent cultures in DMEM supplemented with 10% FBS. KG1 cells were maintained in a suspension culture in IMDM supplemented with 20% FBS.
Stock solutions of the compounds were heated to 60 or 80 °C to obtain solutions with the maximum amount of the trans isomer (dark). […] The solutions were then serially diluted with DMEM to give 20 times the desired final concentration, maintaining DMSO at 10%.
Cells were seeded in 96-well black flat bottom plates with a clear bottom at a density of 5 × 10^3 cells/well (HeLa) or 1 × 10^4 cells/well (MCF7, HT29, and KG1), in a volume of 95 μL.
Viability of HeLa, MCF7, and […] cells was determined with a CellTiter 96 assay (Promega), according to the manufacturer’s instructions. Briefly, 20 μL of CellTiter 96 reagent was added to each well, the plates were incubated at 37 °C for 2 h, and the absorbance at 490 nm was recorded. Viability is expressed as a percentage with respect to the nontreated cells.

[2] = UV–vis spectra and optimal isomerization wavelengths; type: physicochemical
Procedure: Ultraviolet–visible (UV–vis) spectra were recorded using a Tecan Spark 20M Multimode Microplate reader. Samples (200 μL of compound solution/well) were prepared at […] in DMSO. Samples were measured between 300 and 800 nm with 2 nm fixed intervals in 96-well transparent plates. Illumination at different wavelengths was performed for 2 min using 96-well LED array plates (LEDA Teleopto) placed below the samples. […] Potencies were measured using a Thorlabs PM100D power energy meter connected with a standard photodiode power sensor (S120VC).

[3] = E/Z composition under light or temperature conditions by HPLC; type: physicochemical; details: HPLC at isosbestic point (310–338 nm)
human recombinant HDAC1 [4] = target: T1, human recombinant HDAC1; experiment: Fluorogenic assay with human recombinant HDAC1, dark or illumination; type: biochemical; details: enzyme incubated 6 h with or without preillumination, activity assessed every hour
[5] = cited from earlier work
[6] = UV–vis at 25–50 μM in DMSO, Teleopto plates (Table 1)

T1 sequence (Q13547 whole entry): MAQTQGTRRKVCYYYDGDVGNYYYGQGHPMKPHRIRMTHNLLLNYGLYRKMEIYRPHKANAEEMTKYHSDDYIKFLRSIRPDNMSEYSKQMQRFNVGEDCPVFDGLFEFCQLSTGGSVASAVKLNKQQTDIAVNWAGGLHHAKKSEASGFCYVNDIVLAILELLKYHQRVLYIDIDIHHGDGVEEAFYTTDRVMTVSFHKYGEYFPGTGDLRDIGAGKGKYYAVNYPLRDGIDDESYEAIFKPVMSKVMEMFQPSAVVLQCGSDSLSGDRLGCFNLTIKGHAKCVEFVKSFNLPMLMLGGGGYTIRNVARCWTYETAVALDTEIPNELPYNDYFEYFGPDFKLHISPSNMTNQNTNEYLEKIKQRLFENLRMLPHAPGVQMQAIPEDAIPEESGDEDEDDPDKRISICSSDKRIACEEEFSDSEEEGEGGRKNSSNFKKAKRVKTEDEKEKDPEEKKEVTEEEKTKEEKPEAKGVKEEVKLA

COc1ccc(/N=N/c2ccc(/C=C/C(=O)NO)cc2)cc1 [Compound 1, reference compound]
IC50(dark)/IC50(light) (human recombinant HDAC1 [1]; dark vs 365 or 380 nm (Table 2), fold): 18
IC50 (human recombinant HDAC1 [1]; dark, read-out: IC50 dark): 0.96 µM
IC50 (human recombinant HDAC1 [1]; illumination 365 or 380 nm, read-out: IC50 light): 0.052 µM
IC50 (HeLa cells; dark, 48 h, read-out: IC50 dark (concentration that reduces cell viability by half)): ~12 µM
IC50 (HeLa cells; preillumination 380 nm, 48 h, read-out: IC50 light (concentration that reduces cell viability by half)): ~12 µM
IC50 (HeLa cells; supplementary CSV, read-out: HeLa MTS IC50 dark): 12 µM
IC50 (HeLa cells; supplementary CSV, read-out: HeLa MTS IC50 light): 12 µM
IC50(dark)/IC50(light) (HeLa cells; Table 5): ≈1
λcis (optimal wavelength trans to cis) [2, 6]: 380 nm
λtrans (optimal wavelength cis to trans) [2, 6]: 550 nm
λmax trans ([2]; UV–vis spectra at 25–50 μM in DMSO (Table 1)): 378 nm
% cis at λcis ([3]; 100 μM in DMSO after illumination with λcis (Table 1)): 78%
% trans at λtrans ([3]; 100 μM in DMSO after illumination with λtrans (Table 1)): 85%
difference in activity between dark and illuminated conditions over incubation time (human recombinant HDAC1 [4]): maintained over time
wavelength of isomerization [5]: 365 nm
t1/2 (relaxation) ([5]; room temperature in buffer): 4.2 h
